Test results published in PMC9090282, “Characterization of Calcium-Dependent Protein Kinase 2A, a Potential Drug Target Against Cryptosporidiosis” (Frontiers in Microbiology, 2022).

Legend:
Cryptosporidium parvum [1] = experiment: Parasite enumeration by immunofluorescence microscopy in treated HCT-8 cultures; format: cell-based; settings: 10 μM; positive control paromomycin 140 μM
Experimental: (§1) Candidate anti-cryptosporidial compounds were further examined for their effects on C. parvum invasion or development assays. In invasion experiments, HCT-8 cells plated on coverslips were infected with bleached oocysts and cultured with active compounds for 3 h at 37°C. In growth experiments, monolayers were infected with bleached oocysts, washed twice with PBS at 3 h post-infection, and returned to culture in fresh HCT-8 medium with active compounds for 41 h. RNA was collected from each well at specified time point to assess the anti-cryptosporidial activities of these compounds using qRT-PCR method described above. The addition of 140 μM paromomycin was used as a positive control. Parasite enumeration by immunofluorescence microscopy was used to verify the efficacy of active compound K292-0423 against C. parvum development in vitro.

HCT-8 cells = experiment: Cytotoxicity, Cell Titer 96 Aqueous One Solution Cell Proliferation Assay; format: cell-based, human
Experimental: (§2) Using molecular docking of the simulated CpCDPK2A structure, small molecules were selected from the ChemDiv database. The binding energy values of ligands to proteins were calculated based on ligand efficiency, Coulomb energy, Van der waals energy, and H-bond energy. Candidate small molecules were purchased from TopScience Ltd. (Shanghai, China) and screened for activities against C. parvum development in vitro using qRT-PCR ([Zhang et al., 2012]). Briefly, HCT-8 monolayers (2 × 10^4 cells/well) grown in 96 well plates were inoculated with hypochlorite-treated oocysts (2 × 10^4 oocysts/well) containing dilutions of compounds (10 μM) or DMSO (1%). The parasites were allowed to invade host cells for 3 h, and uninvaded parasites were washed off with the medium change. […] The levels of 18S rRNA transcripts of C. parvum and HCT-8 cells were measured by using the HiScript II One Step qRT-PCR SYBR Green kit (Vazyme Biotech, Nanjing, China) as described ([Zhang et al., 2012]). The parasite loads in cultures were calculated using the ΔΔCT method ([Cai et al., 2005]). […] The cytotoxicity of compounds was evaluated by the Cell Titer 96 Aqueous One Solution Cell Proliferation Assay (Promega) as described ([Pobsuk et al., 2019]). The half-maximal toxic concentration (TC50) values on host cells were calculated using Graphpad Prism 7 (Graphpad software, San Diego, United States).

rCpCDPK2A = rCpCDPK2A (Cryptosporidium parvum, UniProt Q5CTY5); experiment: NADH-coupled ATPase assay of rCpCDPK2A enzyme activity; format: biochemical
Experimental: The enzymatic activity of rCpCDPK2A was measured using the […] NADH-coupled ATPase assay as described previously ([Rutaganira et al., 2017]). The kinase reaction was conducted at 30°C for 40 min in 100 mM HEPES, pH 8.0, 150 mM NaCl, 10 mM MgCl2, 1 mM CaCl2, 50 mM KCl, 10 mM DTT, 2 μg/ml BSA, and 0.01% Tween 20. The typical assay of 100 μl reactions contained 50 μM Syntide-2, 50 μM ATP, 150 μM NADH, 300 μM phosphoenolpyruvate (PEP), and a mixture of pyruvate kinase (4 units/ml) and lactate dehydrogenase (6 units/ml; Sigma). The reaction was initiated with the addition of 100 nM rCpCDPK2A. A recombinant insulinase-like protease of C. parvum, INS-16, was used as the negative control. To assess the inhibitory effect on enzymatic activities of rCpCDPK2A, six active compounds were added to the reaction at 10 μM in duplicate. Compounds with significant inhibition rates were selected to determine the half-maximal inhibition concentration (IC50) using final concentrations of 1 μM to 20 μM. The IC50 values were calculated using Graphpad Prism 7.

Cryptosporidium parvum [2] = experiment: Growth experiment: compound added at 3 h post-infection for 41 h, qRT-PCR; format: cell-based; settings: read-out: EC50 on parasite loads, compound added after invasion
Experimental: as §1

Cryptosporidium parvum [3] = experiment: Invasion experiment: HCT-8 cells infected with oocysts and cultured with compound for 3 h, qRT-PCR; format: cell-based; settings: 0.01 to 20 μM, compound only during invasion phase (3 h)
Experimental: as §1

Cryptosporidium parvum [4] = experiment: Anti-cryptosporidial activity on C. parvum development in HCT-8 cultures by qRT-PCR (compound present during invasion and growth, 44 h); format: cell-based
Experimental: as §2

Chain of rCpCDPK2A (Q5CTY5 entry or part of it): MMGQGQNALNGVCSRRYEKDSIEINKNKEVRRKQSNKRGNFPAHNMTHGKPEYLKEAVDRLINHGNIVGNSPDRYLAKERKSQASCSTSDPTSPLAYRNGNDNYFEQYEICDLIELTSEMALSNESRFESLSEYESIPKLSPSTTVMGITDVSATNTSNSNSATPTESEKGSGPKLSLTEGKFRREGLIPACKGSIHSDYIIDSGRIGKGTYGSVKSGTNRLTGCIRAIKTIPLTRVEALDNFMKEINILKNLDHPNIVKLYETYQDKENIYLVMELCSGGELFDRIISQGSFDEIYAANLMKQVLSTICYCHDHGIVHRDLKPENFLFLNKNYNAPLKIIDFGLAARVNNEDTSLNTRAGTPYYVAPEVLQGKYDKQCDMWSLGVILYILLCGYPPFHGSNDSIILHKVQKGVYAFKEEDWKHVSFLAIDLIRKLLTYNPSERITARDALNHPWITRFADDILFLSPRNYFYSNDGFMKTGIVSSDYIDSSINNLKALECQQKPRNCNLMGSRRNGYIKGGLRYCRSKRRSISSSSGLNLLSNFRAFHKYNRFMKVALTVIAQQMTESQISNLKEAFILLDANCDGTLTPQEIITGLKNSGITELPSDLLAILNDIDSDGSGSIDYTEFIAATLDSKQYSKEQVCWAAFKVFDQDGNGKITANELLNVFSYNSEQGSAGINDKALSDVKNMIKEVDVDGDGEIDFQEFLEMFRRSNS

O=C(CSc1nc2ccsc2c(=O)n1-c1ccc(Cl)cc1)NCc1ccco1 [K292-0423]
Inhibitory effect by direct enumeration of parasites (Cryptosporidium parvum [1]): inhibitory effects similar to that by the positive control paromomycin | TC50 (half-maximal toxic concentration) (HCT-8 cells): >75 µM | inhibition at 10 µM (rCpCDPK2A; 10 μM compound, read-out: Inhibition rate of rCpCDPK2A activity): 73.1% | IC50 (rCpCDPK2A; concentrations 1 μM to 20 μM, read-out: IC50 on CpCDPK2A enzyme): 8.42 µM | EC50 (Cryptosporidium parvum [2]): 3.16 µM | Inhibition rates of invasion of HCT-8 cells by C. parvum (Cryptosporidium parvum [3]): −24.27 to 37.66% | inhibition at 10 µM (Cryptosporidium parvum [4]; 10 μM, read-out: Inhibition of parasite growth in primary screening): > 60% | EC50 (Cryptosporidium parvum [4]; dilutions 10 nM to 20 μM, read-out: EC50 (half-maximal effective concentration) on C. parvum growth): 1.13 µM
